Assay results from patent US20230174523A1, “BENZENESULFONAMIDE DERIVATIVES AS TRAP1 MODULATORS AND USES THEREOF” (Amathus Therapeutics, Inc., priority 2020, published 2023).

Target: T1, nanoLuc TRAP1 (Homo sapiens, UniProt Q12931)
T1 construct: expressed in transfected cells; host or cells: SHSY5Y cells, transient transfection with FuGENE HD
T1 sequence (Q12931 60-704): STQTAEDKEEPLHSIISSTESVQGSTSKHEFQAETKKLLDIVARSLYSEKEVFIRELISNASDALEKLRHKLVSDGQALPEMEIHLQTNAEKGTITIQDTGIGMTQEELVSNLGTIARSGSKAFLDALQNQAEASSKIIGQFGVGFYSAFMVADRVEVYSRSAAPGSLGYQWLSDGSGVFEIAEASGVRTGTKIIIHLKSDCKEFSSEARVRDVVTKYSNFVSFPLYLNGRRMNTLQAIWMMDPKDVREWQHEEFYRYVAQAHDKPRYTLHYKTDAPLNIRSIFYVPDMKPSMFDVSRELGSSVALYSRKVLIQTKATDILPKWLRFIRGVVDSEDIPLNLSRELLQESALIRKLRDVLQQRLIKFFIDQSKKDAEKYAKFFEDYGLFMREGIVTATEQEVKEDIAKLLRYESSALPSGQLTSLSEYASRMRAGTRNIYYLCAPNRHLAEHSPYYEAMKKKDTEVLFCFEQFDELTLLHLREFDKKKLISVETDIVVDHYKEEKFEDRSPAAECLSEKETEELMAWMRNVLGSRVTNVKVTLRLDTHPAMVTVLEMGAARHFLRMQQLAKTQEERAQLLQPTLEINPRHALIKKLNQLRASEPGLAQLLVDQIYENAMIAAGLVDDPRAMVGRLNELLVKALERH
Assay: In-cell target engagement assay (NanoBRET) in SHSY5Y cells
Type: cell-based
Settings: tracer probe-385, 1 μM; live SHSY5Y cells; FIG. 4
Procedure: In-cell target engagement assays were performed as described in Robers M. B. et al. (2019) Quantitative, Real-Time Measurements of Intracellular Target Engagement Using Energy Transfer. In: Ziegler S., Waldmann H. (eds) Systems Chemical Biology. Methods in Molecular Biology, vol 1888. Humana Press, New York, N.Y.; Machleidt et al., ACS Chem. Biol. 2015, 10, 8, 1797-1804; or Vasta et al., Cell Chemical Biology 25, 206-214, Feb. 15, 2018; or as described herein.
Below is a protocol for transient transfection of SHSY5Y cells with NanoLuc® fusions. • 1. Cultivate SHSY5Y cells appropriately prior to assay in MEM w NEAA supplemented with 10% FBS. • 2. Remove medium from cell flask via aspiration, trypsinize, and allow cells to dissociate from the flask. • 3. Neutralize trypsin using growth medium and pellet cells via centrifugation at 200 g for 5 minutes. • 4. Aspirate medium and re-suspend cells into a single cell suspension using complete cell culture medium. • 5. Adjust the cell density to 300K/mL in cell culture medium in a sterile, conical tube. • 6. Prepare lipid:DNA complexes as follows (this covers two assay plates, adjust numbers for more plates) • a. Prepare a 10 μg/mL solution of DNA in Opti-MEM without serum. This solution should contain the following ratios of carrier DNA and DNA encoding NanoLuc® fusion. • i. 5.0 μg/mL of Transfection Carrier DNA (pGEM) • ii. […]

displacement of the nanoBRET tracer molecule from nanoLuc TRAP1: displacing the nanoBRET tracer molecule
Structure (SMILES): Cc1nn(C)c2sc(C(=O)Nc3ccc(F)c(S(=O)(=O)Nc4ccc(Cl)cc4)c3)cc12 [Compound 705]
